{
  "source": "patent EP0986299B1",
  "about": "“PLANT TRANSFORMATION METHODS” (Syngenta Participations AG, priority 1997, dated 1998)",
  "key": {"[1]": {"tested_on": "maize type I callus", "details": "transfer 2DG4+ AgNO3 + Cef, 2 weeks", "procedure": "Embryos plated on callus initiation medium (2DG4 + 5 Chloramben) for 7 to 20 days give rise to callus. […] Resultant embryogenic callus are cut out of embryos and transferred to callus maintenance medium, 2DG4 + 0.5 mg/l (2,4-dichlorophenoxy) acetic acid (2,4-D) and used as samples for inoculation.\nType I callus obtained by the method described above can be maintained on the maintenance medium (2DG4 + 2,4 D 0.5 mg/l) and subcultured every 2 weeks.\n(§1) Strain A. tumefaciens LBA4404 (pAL4404, pSB1) is used in these experiments. pAL4404 is a disarmed helper plasmid. pSB1 is a wide host range plasmid that contains a region of homology to pGIGUP and a 15.2 kb Kpnl fragment from the virulence region of pTiBo542 (Ishida et al., 1996; High efficiency transformation of maize (Zea mays L.) mediated by Agrobacterium tumefaciens, Nature Biotechnology 14, 745-750). The introduction of the plasmid pGlGUP by electroporation into LBA4404(pAL4404, pSB1) results in a cointegration of pGlGUP and pSB1. The T-DNA of this plasmid contains a plant expressible PAT gene driven by the ubiquitin promoter to provide resistance to phosphinothricin and a gene for GUS with an intron in the N-terminal codon of the coding sequence driven by the Gelvin promoter. This intron-GUS gene expresses GUS activity in the plant cell but not in Agrobacterium.\n(§2) Agrobacterium is grown for 3 days on YP medium (5g/l yeast extract, 10g/l peptone, 5g/l NaCl, 15 g/l agar, pH 6.8) supplemented with 50 mg/l spectinomycin and 10 mg/l tetracycline. Bacteria are collected with a loop and suspended in N6 liquid medium at a density ranging from 10^9 to 5 10^9cells/ml. Agrobacterium cells can also be collected from an overnight culture in YP medium and resuspended in N6 liquid medium.\n(§3) Maize tissues prepared as described above are inoculated with Agrobacterium. Maize tissues are soaked in the bacterial suspension for 5-10 min and then plated on medium with or without silver nitrate (1 to 10 mg/l). Tissues are also inoculated with a 5 µl drop 10^9 to 5x10^9cells/ml of an Agrobacterium suspension placed on the top of the tissue. After inoculation, maize tissues are cultured in the dark at 25°C with or without silver nitrate in the medium (1 to 10 mg/l). 2 or 3 days after inoculation, tissues are transferred on the same medium supplemented with cefotaxime (250 mg/l) with or without silver nitrate."}, "[2]": {"tested_on": "maize embryos", "details": "for Score (Callus initiation): transfer 2DG4 + AgNO3 +Cef, two weeks", "procedure": "Immature embryos (1.2 to 2.2 mm in length) are aseptically excised 14-15 days after pollination from surface-sterilized, greenhouse-grown ears and plated scutellum up on callus initiation medium, 2DG4 + 5 mg/l chloramben (2DG4-5Chl). 2DG4 medium is Duncan's medium modified to contain […] sucrose.\nEmbryos with callus response: • Immature embryos are sterilized as described above and plated on callus initiation medium (2DG4-5Chl) and cultured therein for 1 to 7 days. The resulting tissue is used as samples for inoculation.\nas §1, §2, §3"}, "[3]": {"tested_on": "tobacco leaf discs", "details": "silver nitrate during co-cultivation; LBA4404(GIGUP) 10^9 cells/ml"}, "[4]": {"tested_on": "cell line HE/89", "test": "DNA fragmentation (DNA ladders) after Agrobacterium exposure, sensitivity to added agents", "type": "cell-based", "details": "maize cells exposed to Agrobacterium, agent added", "procedure": "In order to determine the mechanism of cell death induced by Agrobacterium in maize tissues, genomic DNA is extracted from plant suspension cells harvested 24 or 48 hours after inoculation with Agrobacterium. Exposure to Agrobacterium causes DNA fragmentation in both maize lines, with a pattern characteristic of internucleosomal fragmentation, which is considered an early hallmark of programmed cell death. […] Furthermore, maize cells undergoing programmed cell death could not induce cell death of fresh maize embryogenic tissues.\nFurther evidence for Agrobacterium inducing DNA fragmentation is obtained by investigating the sensitivity of the process to Zn^2+ and Ca^2+. […] These characteristics are fully consistent with the effect of these divalent cations on the endogenous endonucleases responsible for DNA cleavage during apoptosis in animal system. The intensity of the ladder also is decreased by addition of cycloheximide, evidence that the process requires de novo gene expression. […] Fragmentation of DNA during apoptosis is also detected in situ by reagents that react with the exposed hydroxyls on the nucleosome units. 12 day old maize embryos from a proprietary elite line of Lancaster parentage are inoculated with LBA4404 and plated on DG4 medium supplemented with chloramben. Koziel, M.G., & al. 1993. Bio/Technology 11: 194-200. Apoptotic cells are detected by in situ staining with TACS-1 kit (Trevigen), which involves end labeling the DNA fragments by the klenow enzyme using dNTP conjugated to a detectable marker, giving a dark insoluble precipitate indicative of genomic fragmentation. Cullivier, O., Pirianov, G., Kleuser, B., Vanek, P.G., Coso, O.A., Gutking, J.S. and Spiegel, S. (1996) Nature 381, 800-803. Embryos are soaked in 3.7% formadehyde solution and processed as described by the manufacturer. To detect genomic DNA cleavage in situ, fixed embryos are treated with the TACS-1 kit. Fixed cross-sections are first treated with proteinase K for 5 min at room temperature and then dipped for 5 min into 2% hydrogen peroxide to remove endogenous peroxidase. […]"}, "[5]": {"tested_on": "HE/89", "protocol": "The following experiments employ maize inbred lines (Zea mays L. ) HE/89 and a line here designated as Elite 1. […] Suspension culture of Elite 1 is initiated from friable embryogenic callus selected from immature embryos. The HE/89 line is grown in a modified liquid N6 medium amended with 500 mg/l Bacto tryptone, 30 g/l sucrose and 0.5 mg/l 2,4-dichlorophenoxy acetic acid (2,4-D) (N6M). The Elite 1 line is grown in N6 liquid medium (Chu et al., 1975) supplemented with 30 g/l sucrose and 2 mg/l 2,4-D (2N63S). The Nicotiana tabacum cell line NT-1 grown in Murashige and Skoog medium supplemented with 2 mg/l of 2,4-D and sucrose (30g/l) (MS3S) is used as an Agrobacterium-susceptible control. Suspension cultures are maintained in liquid medium on a rotary shaker (120 rpm) and are subcultured every 7 days.\nBacteria are grown in YP medium (5 g/L yeast extract, 10 g/l peptone, 5 g/l NaCl, pH 6.8) for 24 hr at 28°C. […]\nFriable embryogenic callus of HE/89 maize and of a proprietary elite inbred maize maintained in liquid medium are incubated with Agrobacterium for 10 min, 1 hr, 24 hr or 48 hrs prior to transfer to cefotaxim-containing medium. […] The presence or absence of necrosis is scored 2, 4 and 7 days after inoculation and the relative intensity of necrosis is expressed as follow: +, rare formation of necrosis; ++, weak necrosis; +++, strong necrosis; ++++, very strong necrosis."}},
  "note": "Like-named read-outs stand apart in the source and are kept apart here.",
  "data": [
    {"smiles": "O=[N+]([O-])[O-].[Ag+]", "note": "[AgNO3, silver nitrate]", "values": [
      {"measurement": "Score (Survival of tissues)", "setting": "[1]; 1/2 month old Type I callus, pretreatment 2DG4+AgNO3, co-inoculation 2DG4+AgNO3", "result": 95, "unit": "%"},
      {"measurement": "Score (Survival of tissues)", "setting": "[1]; 1/2 month old Type I callus, pretreatment 2DG4, co-inoculation 2DG4+AgNO3", "result": 75, "unit": "%"},
      {"measurement": "Score (Survival of tissues)", "setting": "[1]; 10 month-old Type I callus, pretreatment 2DG4+ AgNO3, co-inoculation 2DG4+ AgNO3", "result": 66, "unit": "%"},
      {"measurement": "Score (Survival of tissues)", "setting": "[1]; 10 month-old Type I callus, pretreatment 2DG4, co-inoculation 2DG4+ AgNO3", "result": 55, "unit": "%"},
      {"measurement": "embryos able to produce embryogenic calli", "setting": "[2]; embryos plated on medium containing silver nitrate, inoculated with Agrobacterium", "result": "About 50%"},
      {"measurement": "Score (Callus initiation)", "setting": "[2]; no pretreatment, co-inoculation 2DG4 + AgNO3, LBA4404 (GIGUP) 10^9 cells/ml", "result": 55, "unit": "%"},
      {"measurement": "Score (Callus initiation)", "setting": "[2]; no pretreatment, co-inoculation 2DG4, LBA4404 (GIGUP) 10^9 cells/ml", "result": 30, "unit": "%"},
      {"measurement": "Score (Callus initiation)", "setting": "[2]; pretreatment 2DG4 (6 days) + 1 day on 2DG4 + AgNO3, co-inoculation 2DG4 + AgNO3", "result": 88, "unit": "%"},
      {"measurement": "Score (Callus initiation)", "setting": "[2]; pretreatment 2DG4 (6 days), co-inoculation 2DG4 + AgNO3", "result": 65, "unit": "%"},
      {"measurement": "Score (Callus initiation)", "setting": "[2]; pretreatment 2DG4 + AgNO3 (1 day), co-inoculation 2DG4 + AgNO3", "result": 43, "unit": "%"},
      {"measurement": "Score (Callus initiation)", "setting": "[2]; pretreatment 2DG4 + AgNO3(4 days), co-inoculation 2DG4 + AgNO3", "result": 27, "unit": "%"},
      {"measurement": "GUS activity", "setting": "[3]", "result": "No significant decrease"}
    ]},
    {"smiles": "[Ca+2]", "note": "[Ca^2+]", "values": [
      {"measurement": "intensity of DNA ladders (genomic fragmentation)", "setting": "[4]", "result": "increased the intensity of DNA ladders"}
    ]},
    {"smiles": "[Zn+2]", "note": "[Zn^2+]", "values": [
      {"measurement": "intensity of DNA ladders (genomic fragmentation)", "setting": "[4]", "result": "markedly reduced genomic fragmentation"}
    ]},
    {"smiles": "CO/N=C(\\C(=O)N[C@@H]1C(=O)N2C(C(=O)O)=C(COC(C)=O)CS[C@H]12)c1csc(N)n1", "note": "[cefotaxime]", "values": [
      {"measurement": "necrosis of maize tissue", "setting": "[5]", "result": "does not cause the maize tissue to become necrotic"}
    ]},
    {"smiles": "C[C@@H]1C[C@@H]([C@H](O)CC2CC(=O)NC(=O)C2)C(=O)[C@@H](C)C1", "note": "[cycloheximide]", "values": [
      {"measurement": "intensity of DNA ladders (genomic fragmentation)", "setting": "[4]", "result": "decreased"}
    ]}
  ]
}
